Measured values taken from US20090258836A1, “EFFECTIVE DELIVERY OF CROSS-SPECIES A3 ADENOSINE-RECEPTOR ANTAGONISTS TO REDUCE INTRAOCULAR PRESSURE” (The Trustees of The University of Pennsylvania, priority 2006, published 2009).
“Also recorded” adds a separate entry of the source.

Key:
[1] = target: T1, recombinant human A2B receptors (Homo sapiens, UniProt P29275); test: Radioligand binding to recombinant human A2B receptors; conditions: 10 μM
T1 sequence (P29275 1-332): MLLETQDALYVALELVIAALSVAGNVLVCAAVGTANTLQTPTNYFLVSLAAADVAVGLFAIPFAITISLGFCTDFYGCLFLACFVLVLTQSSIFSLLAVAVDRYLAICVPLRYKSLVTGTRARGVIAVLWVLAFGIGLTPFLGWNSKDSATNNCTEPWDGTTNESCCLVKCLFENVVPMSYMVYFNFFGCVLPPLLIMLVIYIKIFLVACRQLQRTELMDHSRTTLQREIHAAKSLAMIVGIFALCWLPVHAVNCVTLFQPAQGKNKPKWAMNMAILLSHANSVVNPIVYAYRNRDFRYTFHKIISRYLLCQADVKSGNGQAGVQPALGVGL

[2] = test system: IOP of A3 subtype adenosine receptor (A3AR)-null mice; conditions: published reports; cited from earlier work
human A1 receptors = target: T2, human A1 receptors (Homo sapiens, UniProt P30542); conditions: literature; read-out: Ki for the binding to human A1 receptors; cited from earlier work
T2 sequence (P30542 1-326): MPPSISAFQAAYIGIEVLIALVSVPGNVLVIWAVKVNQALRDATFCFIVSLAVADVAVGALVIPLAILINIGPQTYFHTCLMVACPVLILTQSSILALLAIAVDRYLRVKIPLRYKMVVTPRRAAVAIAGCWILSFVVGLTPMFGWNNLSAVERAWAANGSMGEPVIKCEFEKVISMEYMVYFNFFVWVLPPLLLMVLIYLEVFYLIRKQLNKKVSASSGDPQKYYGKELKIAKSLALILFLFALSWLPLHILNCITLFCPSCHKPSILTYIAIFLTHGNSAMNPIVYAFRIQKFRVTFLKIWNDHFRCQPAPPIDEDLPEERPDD

cultured human NPE cells = conditions: 10 μM adenosine; cited from earlier work
[3] = test system: HCE (human ciliary epithelial) cell line, NPE cells; test: Cell volume in isosmotic solution (isosmotic shrinkage), Coulter Counter; format: cell-based
Method in brief: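 Immortalized human NPE (HCE) cells, 8-13 days post-passage at confluence, suspended in isosmotic solution with test agents or matched vehicle. Volume measured by Coulter Counter as peak of distribution, normalized to first time point; shrinkage fit to monoexponential by nonlinear least squares for steady-state volume and time constant.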

human A2A receptors = human A2A receptors (Homo sapiens, UniProt P29274); conditions: literature; read-out: Ki for the binding to human A2A receptors; cited from earlier work
human A2A receptors, sequence (P29274 whole entry): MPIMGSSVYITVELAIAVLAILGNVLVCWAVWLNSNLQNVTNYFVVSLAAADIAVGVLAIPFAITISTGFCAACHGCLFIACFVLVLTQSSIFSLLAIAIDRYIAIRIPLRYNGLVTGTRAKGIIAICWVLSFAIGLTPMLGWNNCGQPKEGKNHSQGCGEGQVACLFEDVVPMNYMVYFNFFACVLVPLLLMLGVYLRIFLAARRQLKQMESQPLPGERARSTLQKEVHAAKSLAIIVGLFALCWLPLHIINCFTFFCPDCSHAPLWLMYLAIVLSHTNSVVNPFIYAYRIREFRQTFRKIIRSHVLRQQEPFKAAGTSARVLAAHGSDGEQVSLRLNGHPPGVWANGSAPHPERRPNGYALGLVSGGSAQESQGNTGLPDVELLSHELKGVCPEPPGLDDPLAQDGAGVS

Q: For `CCOC(=O)C1=C(C)NC(c2ccccc2)=C(C(=O)OCc2ccccc2)C1C#Cc1ccccc1` (racemic) [MRS-1191, 3-ethyl 5-benzyl-2-methyl-6-phenyl-4-phenylethynyl-1,4-(±)-dihydropyridine-3,5-dicarboxylate], which “displacement of radioligand binding” value [1] is on record?
A: did not displace radioligand binding

Q: And the “response of IOP of A3AR-null mice” value [2]?
A: unresponsive

Q: What about the Ki (human A1 receptors) of the same molecule?
A: 40.1 µM

Q: And the “effect of antagonist on adenosine-treated cells” value (cultured human NPE cells)?
A: displayed no exponential shrinkage

Q: And the “effect of A3 antagonist on IB-MECA-triggered isosmotic shrinkage of NPE cells” value ([3]; 100 nM IB-MECA, 2 min preincubation with 300 nM MRS-1097 or 100 nM MRS-1191)?
A: prevented characteristic shrinkage; also recorded: prevented the shrinkage

Q: And the “effect on cell volume in the absence of IB-MECA” value ([3]; 100 nM MRS-1191)?
A: did not affect cell volume

Q: And the “effect of A3 antagonist on isosmotic shrinkage triggered by CGS-21680” value ([3]; 3 μM CGS-21680, preincubation with 100 nM MRS-1191)?
A: abolished this effect; also recorded: blocked; also recorded: prevented the shrinkage

Q: What about the “effect of A3 antagonist on adenosine-stimulated isotonic shrinkage of NPE cells” value ([3]; 10 μM adenosine, 2 min preincubation with 300 nM MRS-1097, 100 nM MRS-1191 or 100 nM MRS-1523) of the same molecule?
A: prevented the characteristic shrinkage; also recorded: blocked the shrinkage

Q: What about the Ki (human A2A receptors) of the same molecule?
A: > 100 µM
